In paper PMC5515969, “Effects of 31 FDA approved small-molecule kinase inhibitors on isolated rat liver mitochondria” (Archives of Toxicology, 2016):
Like-named read-outs stand apart in the source and are kept apart here.

Assays:
[1] = test system: isolated rat liver mitochondria; test: Mitochondrial inner membrane potential (MMP), Rhodamine 123; format: biochemical; conditions: difference in signal between KI and DMSO treated samples at the end of experiments
From the text: Fig. 3 KI effects on mitochondrial inner membrane potential (MMP). […] In a, c, data are means and standard derivations from three separate experiments. *p < 0.05 as compared to DMSO-treated samples at the end of experiments. In b, data are means of two independent experiments

RCC IV = RCC IV activity in submitochondrial particles; format: biochemical, rat; parameters: key to RCC IV at 50XCmax / RCC IV at 100XCmax: activity relative to DMSO-treated controls (control set as 1 = 100%)
How it was run: (§1)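 Inhibitors preincubated 15 min with submitochondrial particles (1 mg/ml) before activity readout. RCC I (rotenone-sensitive fraction) and I/V: A340, and RCC II: A600, each every 1 min for 6 min; RCC III/IV: A550 every 10 s for 2 min. Activities relative to DMSO control set as 1.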

[2] = test system: isolated rat liver mitochondria; test: Mitochondrial ROS production (CM-H2DCFDA); conditions: DMSO treated samples set as 1
RCC III = RCC III activity in submitochondrial particles; format: biochemical, rat; parameters: key to RCC III at 100XCmax: activity relative to DMSO-treated controls (control set as 1 = 100%)
How it was run: as §1

RCC V = RCC V activity in submitochondrial particles; format: biochemical, rat; for RCC V at 5XCmax: key: 0 indicates that the drug had no effects (negative)
How it was run: as §1

[3] = test system: isolated rat liver mitochondria; test: Mitochondrial oxygen consumption (glutamate/malate or succinate driven, state 4 and state 3); format: biochemical; conditions: DMSO treated samples set as 1; for State 3 respiration driven by succinate at 10XCmax: key: 0 indicates that the drug had no effects (negative); for State 3 respiration driven by succinate at 1XCmax: key: 0 indicates that the drug had no effects (negative)
How it was run: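 Rat liver mitochondria (1 mg/ml protein) exposed 5 min to kinase inhibitors in 0.1% DMSO, then O2 consumption measured by Clark-type electrode with glutamate/malate or succinate (state 4), ADP added after 3 min (state 3). Rates normalized to 0.1% DMSO controls set to 1.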

[4] = cited from earlier work
[5] = Solubility of DMSO stock for 100X/50X Cmax testing; format: physicochemical
From the text: Supplement 204_2016_1918_MOESM3_ESM.xlsx, sheet "Sheet1" | column: 100 Cmax; 50 Cmax; note

RCC II = biological target: T1, RCC II (Rattus norvegicus, UniProt P21913+Q641Z9+Q6PCT8+Q920L2); test: RCC II activity in submitochondrial particles; format: biochemical; parameters: key: activity relative to DMSO-treated controls (control set as 1 = 100%); conditions: DMSO treated samples set as 1
T1 construct: Submitochondrial particles were prepared by subjecting the intact mitochondria to three successive freeze–thaw cycles; from tissue; host or cells: rat liver mitochondria, used as submitochondrial particles
How it was run: as §1

[6] = test system: isolated rat liver mitochondria; test: Mitochondrial swelling (absorbance at 535 nm); format: biochemical; conditions: difference in signal between KI and DMSO treated samples at the end of experiments; for Swelling 5XCmax: key: 0 indicates that the drug had no effects (negative)
[7] = test system: isolated rat liver mitochondria; conditions: positive control alamethicin treated samples
RCC I = RCC I activity in submitochondrial particles; format: biochemical, rat; parameters: key to RCC I at 10XCmax / RCC I at 100XCmax / RCC I at 50XCmax / RCC I at 30XCmax / RCC I at 20XCmax: activity relative to DMSO-treated controls (control set as 1 = 100%); conditions: for RCC I at 10XCmax: DMSO treated samples set as 1
How it was run: as §1

[8] = in vivo; cited from earlier work
[9] = 20-fold Cmax, 15 min, DMSO-treated = 100

T1 sequence (Q920L2 35-656): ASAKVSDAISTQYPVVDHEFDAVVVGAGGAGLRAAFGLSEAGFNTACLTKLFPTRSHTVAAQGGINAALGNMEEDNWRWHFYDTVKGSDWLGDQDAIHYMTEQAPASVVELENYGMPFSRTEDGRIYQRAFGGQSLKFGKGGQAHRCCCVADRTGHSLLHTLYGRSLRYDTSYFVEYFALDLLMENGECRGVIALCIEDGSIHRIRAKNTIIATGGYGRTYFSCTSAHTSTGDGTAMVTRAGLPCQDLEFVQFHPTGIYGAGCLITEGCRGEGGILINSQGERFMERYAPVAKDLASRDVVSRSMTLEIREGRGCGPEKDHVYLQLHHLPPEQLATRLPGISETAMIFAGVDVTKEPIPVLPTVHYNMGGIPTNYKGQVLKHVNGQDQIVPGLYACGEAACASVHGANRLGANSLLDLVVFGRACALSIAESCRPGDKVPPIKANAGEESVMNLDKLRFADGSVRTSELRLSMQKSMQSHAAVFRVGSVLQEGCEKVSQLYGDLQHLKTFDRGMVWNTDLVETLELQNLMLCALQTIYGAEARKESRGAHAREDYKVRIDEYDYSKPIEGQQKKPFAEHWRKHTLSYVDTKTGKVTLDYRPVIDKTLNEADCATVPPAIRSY
T1 sequence (P21913 31-282): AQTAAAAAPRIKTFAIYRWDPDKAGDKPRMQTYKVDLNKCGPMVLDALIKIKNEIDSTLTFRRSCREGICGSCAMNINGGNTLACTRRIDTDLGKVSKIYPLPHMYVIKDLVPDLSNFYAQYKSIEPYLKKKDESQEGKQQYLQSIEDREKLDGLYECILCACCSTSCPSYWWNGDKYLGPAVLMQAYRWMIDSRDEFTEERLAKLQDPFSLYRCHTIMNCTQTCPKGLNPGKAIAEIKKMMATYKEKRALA
T1 sequence (Q641Z9 1-169): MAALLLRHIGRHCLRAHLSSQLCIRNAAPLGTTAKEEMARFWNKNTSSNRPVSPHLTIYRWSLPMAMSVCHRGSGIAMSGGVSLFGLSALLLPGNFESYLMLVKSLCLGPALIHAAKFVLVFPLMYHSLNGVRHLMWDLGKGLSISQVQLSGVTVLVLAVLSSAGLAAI
T1 sequence (Q6PCT8 57-159): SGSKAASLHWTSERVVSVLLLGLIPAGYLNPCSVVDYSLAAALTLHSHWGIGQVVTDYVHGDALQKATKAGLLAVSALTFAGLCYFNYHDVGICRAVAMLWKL

CCc1cc2c(cc1N1CCC(N3CCOCC3)CC1)C(C)(C)c1[nH]c3cc(C#N)ccc3c1C2=O [Alectinib]
MMP measured by Rhodamine 123 at 1XCmax [1]: 0
MMP measured by Rhodamine 123 at 2.5XCmax [1]: 0
MMP measured by Rhodamine 123 at 5XCmax [1]: 0
MMP measured by Rhodamine 123 at 10XCmax [1]: 0
MMP measured by Rhodamine 123 at 20XCmax [1]: 0
RCC activity IV (RCC IV; [9]): 101.46 ± 1.66 % of control
ROS measured by CM-H2DCFDA at 1XCmax [2]: 0
ROS measured by CM-H2DCFDA at 2.5XCmax [2]: 0
ROS measured by CM-H2DCFDA at 5XCmax [2]: 0
ROS measured by CM-H2DCFDA at 10XCmax [2]: 0
ROS measured by CM-H2DCFDA at 20XCmax [2]: 0
RCC activity III (RCC III; [9]): 116.05 ± 4.72 % of control
RCC V at 5XCmax (RCC V; DMSO treated samples set as 1): 0
RCC activity V (RCC V; [9]): 106.30 ± 11.74 % of control
State 3 respiration driven by succinate at 1XCmax [3]: 0
State 4 respiration driven by succinate at 1XCmax [3]: 0
State 3 respiration driven by succinate at 2.5XCmax [3]: 0
State 4 respiration driven by succinate at 2.5XCmax [3]: 0
State 3 respiration driven by succinate at 5XCmax [3]: 0
State 4 respiration driven by succinate at 5XCmax [3]: 0
State 3 respiration driven by succinate at 10XCmax [3]: 0
State 4 respiration driven by succinate at 10XCmax [3]: 0
State 3 respiration driven by succinate at 20XCmax [3]: 0
State 4 respiration driven by succinate at 20XCmax [3]: 0
Cmax ([4]; human therapeutic Cmax at FDA recommended dosages, ref product labeling and drug approval packages at the official FDA website): 1.37 µM
Cmax (ng or µg/ml) ([4]; human therapeutic maximal blood concentration, ref product labeling): 0.665 µg/mL
Cmax ([4]; read-out: Cmax at µM, human therapeutic maximal blood concentration, ref product labeling): 1.37 µM
DMSO stock for 50 Cmax ([5]; solubility in DMSO, stock for 50 Cmax): not soluble
DMSO stock for 100 Cmax ([5]; solubility in DMSO, stock for 100 Cmax): not soluble
RCC II at 1.0XCmax (RCC II): 0
RCC II at 2.5XCmax (RCC II): 0
RCC II at 5XCmax (RCC II): 0
RCC II at 10XCmax (RCC II): 0
RCC II at 20XCmax (RCC II): 0
Swelling 1XCmax [6]: 0
Swelling 2.5XCmax [6]: 0
Swelling 5XCmax [6]: 0
Swelling 10XCmax [6]: 0
Swelling 20XCmax [6]: 0
Cytochrome c release 1XCmax [7]: 0
Cytochrome c release 2.5XCmax [7]: 0
Cytochrome c release 5XCmax [7]: 0
Cytochrome c release 10XCmax [7]: 0
Cytochrome c release 20XCmax [7]: 0
RCC I at 10XCmax (RCC I): 0
RCC activity I (RCC I; [9]): 89.39 ± 2.98 % of control
RCC I at 20XCmax (RCC I; 20XCmax, DMSO-treated = 100): 89.39±2.98

C=CC(=O)Nc1cc(Nc2nccc(-c3cn(C)c4ccccc34)n2)c(OC)cc1N(C)CCN(C)C.CS(=O)(=O)O [osimertinib mesylate]
MMP measured by Rhodamine 123 at 1XCmax [1]: 0
MMP measured by Rhodamine 123 at 2.5XCmax [1]: 0
MMP measured by Rhodamine 123 at 5XCmax [1]: 0
MMP measured by Rhodamine 123 at 10XCmax [1]: 0
MMP measured by Rhodamine 123 at 20XCmax [1]: 0
MMP measured by Rhodamine 123 at 30XCmax ([1]; 30XCmax): 0
MMP measured by Rhodamine 123 at 50XCmax ([1]; 50XCmax): 0
MMP measured by Rhodamine 123 at 100XCmax ([1]; 100XCmax): 0
RCC IV at 50XCmax (RCC IV; 50XCmax, DMSO treated samples set as 1, in %): 0
ROS measured by CM-H2DCFDA at 1XCmax [2]: 0
ROS measured by CM-H2DCFDA at 2.5XCmax [2]: 0
ROS measured by CM-H2DCFDA at 5XCmax [2]: 0
ROS measured by CM-H2DCFDA at 10XCmax [2]: 0
ROS measured by CM-H2DCFDA at 20XCmax [2]: 0
ROS measured by CM-H2DCFDA at 30XCmax ([2]; 30XCmax): 1.38±0.13
ROS measured by CM-H2DCFDA at 50XCmax ([2]; 50XCmax): 1.80±0.32
ROS measured by CM-H2DCFDA at 100XCmax ([2]; 100XCmax): 3.35±0.28
RCC III at 100XCmax (RCC III; 100XCmax): 0
Labeling for cardiotoxicity [8]: W&P: QTc Interval Prolongation; Cardiomyopathy
Potential for cardiotoxicity (based on labeling) [8]: 1
RCC V at 5XCmax (RCC V; DMSO treated samples set as 1): 0
RCC V at 50XCmax (RCC V; 50XCmax, DMSO treated samples set as 1): 0
State 3 respiration driven by succinate at 1XCmax [3]: 0
State 4 respiration driven by succinate at 1XCmax [3]: 0
State 3 respiration driven by succinate at 2.5XCmax [3]: 0
State 4 respiration driven by succinate at 2.5XCmax [3]: 0
State 3 respiration driven by succinate at 5XCmax [3]: 0
State 4 respiration driven by succinate at 5XCmax [3]: 0
State 3 respiration driven by succinate at 10XCmax [3]: 0
State 4 respiration driven by succinate at 10XCmax [3]: 0
State 3 respiration driven by succinate at 20XCmax [3]: 0
State 4 respiration driven by succinate at 20XCmax [3]: 0
State 3 respiration driven by succinate at 30XCmax ([3]; 30XCmax): 0
State 4 respiration driven by succinate at 30XCmax ([3]; 30XCmax): 0
State 3 respiration driven by succinate at 50XCmax ([3]; 50XCmax): 0
State 4 respiration driven by succinate at 50XCmax ([3]; 50XCmax): 0
State 3 respiration driven by succinate at 100XCmax ([3]; 100XCmax): 0
State 4 respiration driven by succinate at 100XCmax ([3]; 100XCmax): 0
Cmax ([4]; human, in vivo): 0.5 µM
note (DMSO stock) [5]: 50 mM will precipitate
RCC II at 1.0XCmax (RCC II): 0
RCC II at 2.5XCmax (RCC II): 0
RCC II at 5XCmax (RCC II): 0
RCC II at 10XCmax (RCC II): 0
RCC II at 20XCmax (RCC II): 0
RCC II at 30XCmax (RCC II; 30XCmax): 0
RCC II at 50XCmax (RCC II; 50XCmax): 0
RCC II at 100XCmax (RCC II; 100XCmax): 0
Swelling 1XCmax [6]: 0
Swelling 2.5XCmax [6]: 0
Swelling 5XCmax [6]: 0
Swelling 10XCmax [6]: 0
Swelling 20XCmax [6]: 0
Swelling 30XCmax ([6]; 30XCmax): 0
Swelling 50XCmax ([6]; 50XCmax): 0
Swelling 100XCmax ([6]; 100XCmax): 0
Cytochrome c release 1XCmax [7]: 0
Cytochrome c release 2.5XCmax [7]: 0
Cytochrome c release 5XCmax [7]: 0
Cytochrome c release 10XCmax [7]: 0
Cytochrome c release 20XCmax [7]: 0
Cytochrome c release 30XCmax ([7]; 30XCmax): 0
Cytochrome c release 50XCmax ([7]; 50XCmax): 0
Cytochrome c release 100XCmax ([7]; 100XCmax): 6.58±0.09 percentage of the positive control group
RCC I at 10XCmax (RCC I): 0
